Consider 16 compounds from PubChem BioAssay (NCI).

Where “and” joins values, the source holds several entries; their conditions need not be identical. Identical values can stand only once.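 Five compound concentrations were applied to cells in 96-well plates for 48 hours; endpoints were derived by simple linear interpolation of the resulting dose-response curve. The concentration for 50% growth inhibition is given as GI50. At the TGI there is no net growth.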 A value given as a limit tells only on which side of the number the result lay.

Some test systems named below: MDA-MB-231 breast; HS 578T breast; T-47D breast; NCI/ADR-RES ovarian.
Test in all cases: NCI tumour cell line growth inhibition, 48 h

Consider `COc1ccc2c(c1)OC(N)=C(C#N)C2c1ccc(F)cc1` (centres undefined), for which the GI50 with MDA-MB-231 breast was 3.09 µM; in the assay with HS 578T breast, 3.84 µM; with T-47D breast it was 3.78 µM; in the assay on NCI/ADR-RES ovarian it was 0.516 µM. Moreover, the TGI was 97.5 µM in the assay with MDA-MB-231 breast, > 100 µM in the assay on HS 578T breast, > 100 µM with T-47D breast and > 100 µM in the assay with NCI/ADR-RES ovarian.
With `O=C(/C=C/c1ccc(C(F)(F)F)cc1)c1ccc(Nc2nc(NCCO)nc(N3CCOCC3)n2)cc1`, the GI50 with MDA-MB-231 breast was 2.69 µM; in the assay with HS 578T breast it was 2.61 µM; in the assay with T-47D breast, 2.28 µM; in the assay on NCI/ADR-RES ovarian, 2.87 µM. In addition, the TGI turned out to be 9.74 µM in the assay with MDA-MB-231 breast, 7.77 µM in the assay with T-47D breast and 9.52 µM in the assay on NCI/ADR-RES ovarian.
As for `O=Cc1ccc(O)c2ncccc12`, the GI50 in the assay with MDA-MB-231 breast is 4.21 µM; in the assay with HS 578T breast it was 7.05 µM; with T-47D breast it was 2.56 µM; with NCI/ADR-RES ovarian, 2.2 µM. Moreover, the TGI in the assay on MDA-MB-231 breast is > 100 µM; in the assay on HS 578T breast it was > 53.7 µM; in the assay with T-47D breast, > 76 µM; with NCI/ADR-RES ovarian it was > 29.4 µM.
Consider `C=C1CC[C@@H]2[C@](C)(COC(C)=O)[C@H](OC(C)=O)CC[C@@]2(C)[C@@H]1C/C=C1/C(=O)OC[C@H]1OC(C)=O`, for which the GI50 was 12.5 µM in the assay with MDA-MB-231 breast, 12.3 µM in the assay with HS 578T breast, 2.86 µM in the assay with T-47D breast and 4.22 µM with NCI/ADR-RES ovarian. Besides, the TGI in the assay with MDA-MB-231 breast is 27.1 µM; with HS 578T breast, 55.3 µM; in the assay with T-47D breast it was 13.8 µM; in the assay with NCI/ADR-RES ovarian, 19.8 µM.
As for `CCCN(CCC)C(=O)[C@H](CC)[C@@H]1CC[C@@H](C)[C@@H]([C@H](C)[C@@H](O)[C@@H](C)C(=O)[C@H](CC)C2O[C@]3(C=C[C@@H](O)[C@]4(CC[C@@](C)([C@H]5CC[C@](O)(CC)[C@H](C)O5)O4)O3)[C@H](C)C[C@@H]2C)O1` (some centres undefined), the GI50 with MDA-MB-231 breast is 1.62 µM; in the assay on HS 578T breast it was 2.75 µM; in the assay on T-47D breast it was 3.08 µM; in the assay on NCI/ADR-RES ovarian, 2.93 µM. Further, the TGI is 3.28 µM with MDA-MB-231 breast, 9.01 µM in the assay with HS 578T breast, 14.5 µM in the assay with T-47D breast and 10.3 µM with NCI/ADR-RES ovarian.
With `CC(C)C[C@@H]1NC(=O)[C@@H]2CCCN2C(=O)[C@@H]2CCCN2C(=O)[C@H](CC(C)C)NC(=O)[C@H](CO)NC(=O)[C@H](CCCCN)NC(=O)[C@H]([C@H](C)O)NC(=O)[C@@H]2CCCC[C@@H](NC1=O)C(=O)N[C@@H](Cc1ccccc1)C(=O)N1CCC[C@H]1C(=O)N[C@@H](CC(=O)O)C(=O)NCC(=O)N[C@@H](CCCN=C(N)N)C(=O)N2`, the GI50 in the assay with MDA-MB-231 breast, in the assay on HS 578T breast, in the assay on T-47D breast and in the assay on NCI/ADR-RES ovarian was > 50 µM each time. In addition, the TGI in the assay with MDA-MB-231 breast, with HS 578T breast, in the assay with T-47D breast and with NCI/ADR-RES ovarian was > 50 µM each time.
Turning to `COC(=O)c1cc2oc(/C=C3\SC(=S)N(NC(C)=O)C3=O)cc2n1Cc1ccccc1`, the GI50 in the assay with MDA-MB-231 breast is 9.02 µM; in the assay with HS 578T breast, 6.61 µM; in the assay with NCI/ADR-RES ovarian, 7.77 µM. Besides, the values for the TGI with MDA-MB-231 breast, with HS 578T breast and in the assay on NCI/ADR-RES ovarian were 17.4 µM, > 50 µM and 19.5 µM, respectively.
In the case of `O=C(CCCCCCC(=O)Nc1ccc2c(c1)/C(=C/c1ccc[nH]1)C(=O)N2)NO`, the GI50 in the assay with MDA-MB-231 breast was 0.991 µM; in the assay on HS 578T breast, 1.01 µM; in the assay on NCI/ADR-RES ovarian, 3.86 µM. Also, the TGI was 10 µM in the assay on MDA-MB-231 breast, > 100 µM in the assay with HS 578T breast and > 100 µM in the assay with NCI/ADR-RES ovarian.
`CSC1C(=O)c2ccccc2/C(=N/Nc2nc3ccccc3s2)C1C` (centres undefined): the GI50 in the assay with MDA-MB-231 breast was 7.79 µM; with HS 578T breast, 7.26 µM; with T-47D breast it was 8.65 µM; in the assay with NCI/ADR-RES ovarian it was 9.94 µM. The TGI is 15.8 µM in the assay with MDA-MB-231 breast, 27.9 µM in the assay with HS 578T breast, > 50 µM in the assay on T-47D breast and 25.5 µM in the assay with NCI/ADR-RES ovarian.
For the compound `Cc1ccc(S(=O)(=O)Nc2nc3ccccc3nc2Nc2ccc3nsnc3c2)cc1`, the GI50 with MDA-MB-231 breast is 6.58 µM and 7.37 µM; in the assay with HS 578T breast, 5.62 µM and 4.21 µM; in the assay on T-47D breast it was 3.34 µM and 3.47 µM; in the assay on NCI/ADR-RES ovarian, 3.2 µM and 3.52 µM. In addition, the TGI with MDA-MB-231 breast is 26.6 µM and > 100 µM; in the assay with HS 578T breast, > 100 µM; in the assay with T-47D breast, > 100 µM; in the assay with NCI/ADR-RES ovarian, > 100 µM.
Consider `COC(=O)[C@@]1(O)C[C@H]2O[C@]1(C)n1c3ccccc3c3c4c(c5c6ccccc6n2c5c31)C(=O)NC4`, for which the GI50 is 0.429 µM in the assay on MDA-MB-231 breast, 0.248 µM in the assay with HS 578T breast, 0.0805 µM with T-47D breast and 0.415 µM in the assay on NCI/ADR-RES ovarian. The TGI came out at 2.88 µM in the assay on MDA-MB-231 breast, 2.06 µM in the assay on HS 578T breast, 2.05 µM in the assay with T-47D breast and 3.56 µM in the assay on NCI/ADR-RES ovarian.
For `COc1ccc(/C=C/C(=O)c2cc3c(N)c(C(=O)Nc4ccccc4)sc3nc2C)cc1`, the GI50 with MDA-MB-231 breast was 0.377 µM; in the assay on HS 578T breast, 0.153 µM; in the assay with T-47D breast, 0.33 µM; with NCI/ADR-RES ovarian it was 0.121 µM. In addition, the TGI in the assay on MDA-MB-231 breast is > 31.8 µM; in the assay with HS 578T breast, > 50 µM; in the assay with T-47D breast, > 50 µM.
With `N#C[S-].[Au+].c1ccc(CN2[CH-]N(Cc3ccccc3)C(c3ccccc3)=C2c2ccccc2)cc1`, in the assay with HS 578T breast, the GI50 is 0.744 µM and the TGI came to 4.62 µM.
Consider `N=C(N)c1ccc(-c2ccc(-c3cccs3)s2)nc1`, for which the GI50 with MDA-MB-231 breast is 1.55 µM; with HS 578T breast it was 1.55 µM; in the assay with T-47D breast, 2.06 µM; in the assay with NCI/ADR-RES ovarian, 3.11 µM. Besides, the TGI in the assay on MDA-MB-231 breast amounted to 3.39 µM; in the assay on HS 578T breast, 4.66 µM; in the assay on T-47D breast, 5.57 µM; in the assay on NCI/ADR-RES ovarian, 14.5 µM.
Regarding `C=CC(=O)Nc1cccc(C)c1Nc1ncc2cc(-c3c(Cl)c(OC)cc(OC)c3Cl)ccc2n1`, the GI50 with MDA-MB-231 breast is 4.02 µM; in the assay on HS 578T breast, 13.8 µM; in the assay with T-47D breast, 1.64 µM; in the assay with NCI/ADR-RES ovarian, 4.07 µM. Also, the TGI is 46.4 µM in the assay on MDA-MB-231 breast, > 100 µM in the assay with HS 578T breast, > 100 µM with T-47D breast and 66.5 µM in the assay on NCI/ADR-RES ovarian.
With `COc1cc([N+](=O)[O-])c(OC)cc1-c1nc2sc(Cl)cn2c1/C=N/NC(=N)N/N=C/c1c(-c2cc(OC)c([N+](=O)[O-])cc2OC)nc2sc(Cl)cn12`, the GI50 is 1.59 µM in the assay with MDA-MB-231 breast, 1.98 µM with T-47D breast and > 100 µM with NCI/ADR-RES ovarian. In addition, the values for the TGI with MDA-MB-231 breast, with T-47D breast and in the assay on NCI/ADR-RES ovarian were 3.4 µM, 5.07 µM and > 100 µM, respectively.
